1 molecule from US20200278355A1, “CONJUGATED PROTEINS AND USES THEREOF” (THE SCRIPPS RESEARCH INSTITUTE, priority 2017, published 2020) can be followed below.

For one test, the target named is T1, NUDT8 (Homo sapiens, UniProt Q8WV74).
T1 construct: H460 cells or H460 cells expressing luciferase in a 10 cm plate were incubated with indicated compounds; endogenous in cells; host or cells: H460
Briefly: isoTOP-ABPP of compound-treated H460 cells: NUDT8. Format: cell-based. To be noted: NUDT8 C207; 40 μM. The protocol: For analysis of NR0B1 ligands or control compound reactivity, H460 cells or H460 cells expressing luciferase in a 10 cm plate were incubated with indicated compounds in serum/dye-free RPMI for 3 hours at 37° C. Cells were washed once ice-cold PBS and lysed in 1% Triton X-100 dissolved in PBS with protease inhibitors (Sigma) by sonication. Samples were clarified by centrifugation for 10 min at 16,000×g. Lysate was adjusted to 1.5 mg ml^−1 in 500 μL.
Samples were labeled for 1 h at ambient temperature with 100 μM iodoacetamide alkyne (1, IA-alkyne, 5 μL of 10 mM stock in DMSO). Samples were conjugated by copper-catalyzed azide-alkyne cycloaddition (CuAAC) to isotopically labeled, TEV-cleavable tags (TEV-tags). Heavy CuAAC reaction mixtures was added to the DMSO-treated or shGFP control samples and light CuAAC reaction mixture was added to compound-treated or shNRF2 samples. The CuAAC reaction mixture consisted of TEV tags (light or heavy, 10 μL of 5 mM stocks in DMSO, final concentration=100 μM), 1 mM tris(2-carboxyethyl)phosphine hydrochloride (TCEP; fresh 50× stock in water, final concentration=1 mM), ligand (17× stock in DMSO:t-butanol 1:4, final concentration=100 μM) and 1 mM CuSO4 (50× stock in water, final concentration=1 mM). The samples were allowed to react for 1 h at which point the samples were centrifuged (16,000×g, 5 min, 4° C.). […]

Test [1] relates to CRY1, DEPDC1, and CPLX2 expression in KEAP1-WT H2009 cells. Briefly: Gene expression changes (qPCR) in KEAP1-WT NSCLC cells. Format: cell-based, human. (In general: Real-time PCR tracks product formation cycle by cycle.)

T1 sequence (Q8WV74 whole entry): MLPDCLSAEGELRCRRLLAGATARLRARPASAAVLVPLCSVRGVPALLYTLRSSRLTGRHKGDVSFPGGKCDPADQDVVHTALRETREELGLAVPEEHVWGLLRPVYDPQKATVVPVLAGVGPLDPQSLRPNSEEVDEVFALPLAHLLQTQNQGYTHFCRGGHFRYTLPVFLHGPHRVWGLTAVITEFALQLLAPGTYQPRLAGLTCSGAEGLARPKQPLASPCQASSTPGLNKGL

On to `O=C(c1ccc(N2CCOCC2)cc1)N1CCCC(N(Cc2ccccc2)C(=O)CCl)CC1` (centres unmarked) [BPK-29, N-benzyl-2-chloro-N-(1-(4-morpholinobenzoyl)azepan-4-yl)acetamide], for which the “BPK-29-competed isoTOP-ABPP analysis” value at NUDT8 is “Yes (Competed defined as showing R value ≥ 3.0 at 40 μM of test compound)”. The “gene expression changes (CRY1, DEPDC1, CPLX2)” value in test [1] is given as “not observed”.
